Entries after “also recorded” stand apart in the source; their conditions may differ.
Key:
[1] = tested on: immature LC (Langerhans cells); experiment: Apoptosis of immature LC, flow cytometry of PI stained nuclei (sub 2N particles) / annexin V; type: cell-based, human; conditions: for synergy with the pan-RXR agonist SR11237 to induce LC death / inhibition of retinoid-induced apoptosis / cell death of immature LC / induction of apoptosis / death of immature LC by the substance on its own: result in words; for induction of apoptosis / death of immature LC by the substance on its own: no TNFα
[2] = tested on: immature LC (Langerhans cells); experiment: Activation of immature LC: HLA-DR and CD86 expression by flow cytometry; type: cell-based, human; design: class II or CD86 upregulation on immature LC: dose or concentration left out as unconfirmed; conditions: for activation of immature LC (class II / CD86, DRhi-CD86hi) in the presence of TNFα: TNFα 1-10 ng/ml
Experimental: Immature LC were cultured with retinol or vehicle and/or TNFα for 40 h. Cells were washed and incubated with HLA-DR-FITC and CD86-PE or isotype controls for 15 min at 4° C. 10^4 events were then analyzed with a FACScalibur (Becton Dickinson) using CellQuest software (Becton Dickinson). % are given for DRhi CD86hi cells gated as indicated. Data are representative of three experiments on different donors.
FIG. 3A: Day 6 immature LC were cultured for 40 h with TNFα and/or retinoids or vehicle as indicated. Cells were washed and stained with HLA-DR-FITC and CD86-PE or isotype controls for 15 min at 4° C. 10^4 events were then analyzed with a FACScalibur (Becton Dickinson) using CellQuest software (Becton Dickinson). Data are given for DRhi/CD86 hi cells gated as indicated, and are representative of 10 experiments on different donors.
Percentages of DRhi/CD86 hi cells are represented and results are expressed as the mean±SD of at last three experiments on different donors.
Flow Cytometry Analysis. 1×10^5 cells were incubated in 96-well plates (Becton Dickinson Labware, Franklin Lakes, N.J.) for 15 min at 4 ° C. in PBS, 2% human AB serum, and 0.01 M NaN3, with FITC-conjugated anti-DR (Immunotech, Marseille, France) and PE-conjugated CD86 (Pharmingen, San Diego, Calif.) at the appropriate concentration, or with control isotype-matched irrelevant mAbs at the same concentration. After washing, 10^4 events were analyzed with a FACScalibur (Becton Dickinson Immunocytometry Systems, Mountain View, Calif.) using CellQuest software.

RARα AF2 = target: T1, RARα AF2 (Homo sapiens, UniProt P10276); conditions: retinoid activity, reporter cells; cited from earlier work; also: key: '+' = agonist; '(+)' = weak agonist; '−' = antagonist; '0' = absence of agonist and antagonist activities
T1 construct: expressed in transfected cells
T1 sequence (P10276 183-417 limits assumed): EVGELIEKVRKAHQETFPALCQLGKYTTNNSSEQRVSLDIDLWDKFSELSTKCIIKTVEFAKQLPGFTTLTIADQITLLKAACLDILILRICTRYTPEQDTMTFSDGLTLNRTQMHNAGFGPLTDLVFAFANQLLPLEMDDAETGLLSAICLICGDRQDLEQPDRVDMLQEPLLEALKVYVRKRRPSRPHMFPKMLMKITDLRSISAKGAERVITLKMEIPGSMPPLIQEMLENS

RARβ AF2 = target: T2, RARβ AF2 (Homo sapiens, UniProt P10826); conditions: retinoid activity, reporter cells; cited from earlier work; also: key: '+' = agonist; '(+)' = weak agonist; '−' = antagonist; '0' = absence of agonist and antagonist activities
T2 construct: expressed in transfected cells
T2 sequence (P10826 183-417 limits assumed): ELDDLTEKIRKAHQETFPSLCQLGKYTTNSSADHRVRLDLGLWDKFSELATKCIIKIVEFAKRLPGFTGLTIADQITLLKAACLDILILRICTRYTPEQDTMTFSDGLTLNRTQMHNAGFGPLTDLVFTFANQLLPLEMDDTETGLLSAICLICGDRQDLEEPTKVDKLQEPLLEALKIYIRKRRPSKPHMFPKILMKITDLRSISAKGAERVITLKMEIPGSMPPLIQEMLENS

RARγ AF2 = target: T3, RARγ AF2 (Homo sapiens, UniProt P13631); conditions: retinoid activity, reporter cells; cited from earlier work; also: key: '+' = agonist; '(+)' = weak agonist; '−' = antagonist; '0' = absence of agonist and antagonist activities
T3 construct: expressed in transfected cells
T3 sequence (P13631 185-419 limits assumed): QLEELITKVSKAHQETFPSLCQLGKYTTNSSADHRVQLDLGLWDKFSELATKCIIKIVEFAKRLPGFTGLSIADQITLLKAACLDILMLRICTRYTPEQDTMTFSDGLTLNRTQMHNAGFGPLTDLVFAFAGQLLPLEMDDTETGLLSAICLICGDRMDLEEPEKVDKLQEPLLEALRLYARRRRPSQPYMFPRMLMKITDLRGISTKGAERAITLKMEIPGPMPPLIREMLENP

RXR AF2 = conditions: retinoid activity, reporter cells; cited from earlier work
RXRα homodimer [(RXR)2] = target: T4, RXRα homodimer [(RXR)2] (Homo sapiens, UniProt P19793); conditions: retinoid activity, transient transfection; cited from earlier work; also: key: '+' = agonist; '(+)' = weak agonist; '−' = antagonist; '0' = absence of agonist and antagonist activities
T4 construct: expressed in transfected cells
T4 sequence (P19793 1-462): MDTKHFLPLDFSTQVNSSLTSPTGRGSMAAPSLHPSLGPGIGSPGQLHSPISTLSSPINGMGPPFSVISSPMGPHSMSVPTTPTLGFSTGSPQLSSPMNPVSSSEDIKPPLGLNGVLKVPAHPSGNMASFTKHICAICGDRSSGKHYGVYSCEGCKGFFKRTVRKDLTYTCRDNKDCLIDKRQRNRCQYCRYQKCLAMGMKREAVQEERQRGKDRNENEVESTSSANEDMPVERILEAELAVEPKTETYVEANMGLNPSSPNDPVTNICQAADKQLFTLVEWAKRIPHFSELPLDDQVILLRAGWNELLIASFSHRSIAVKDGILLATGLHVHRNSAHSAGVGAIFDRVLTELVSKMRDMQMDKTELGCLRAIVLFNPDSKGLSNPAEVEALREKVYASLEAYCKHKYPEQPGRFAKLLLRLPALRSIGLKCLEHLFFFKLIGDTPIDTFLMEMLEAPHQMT

RARα-RXRα heterodimer = target: T5, RARα-RXRα heterodimer (Homo sapiens, UniProt P10276+P19793); conditions: retinoid activity, transient transfection; cited from earlier work
T5 construct: expressed in transfected cells
T5 sequence (P10276 1-462): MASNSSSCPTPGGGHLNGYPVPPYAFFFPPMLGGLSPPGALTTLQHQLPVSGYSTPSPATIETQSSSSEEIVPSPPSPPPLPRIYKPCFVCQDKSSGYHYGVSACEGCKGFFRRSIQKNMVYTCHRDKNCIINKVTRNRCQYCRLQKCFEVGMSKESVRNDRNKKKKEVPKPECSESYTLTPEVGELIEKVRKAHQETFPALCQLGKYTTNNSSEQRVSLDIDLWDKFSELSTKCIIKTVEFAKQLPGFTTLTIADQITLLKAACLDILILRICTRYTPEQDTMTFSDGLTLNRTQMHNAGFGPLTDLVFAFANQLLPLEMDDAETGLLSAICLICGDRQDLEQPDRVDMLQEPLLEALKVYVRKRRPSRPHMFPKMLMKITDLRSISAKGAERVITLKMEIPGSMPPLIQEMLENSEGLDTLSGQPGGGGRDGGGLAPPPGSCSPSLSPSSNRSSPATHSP
T5 sequence (P19793 1-462): T4 sequence (P19793 1-462)

[3] = 1 nM, two days in culture, mean ± SD
[4] = 10 nM, two days in culture, mean ± SD
[5] = 100 nM, two days in culture, mean ± SD
[6] = 1 μM, two days in culture, mean ± SD

CC1(C)CC=C(c2ccccc2)c2cc(/C=C/c3ccc(C(=O)O)cc3Cl)ccc21 [Compound III, (E)-3-Chloro-4-[2-(5,6-dihydro-5,5-dimethyl-8-phenyl-2-naphthalenyl)-ethenyl] benzoic acid]
percentage of apoptotic (<2N) particles [1, 3]: ≦5% | percentage of apoptotic (<2N) particles [1, 4]: ≦5% | percentage of apoptotic (<2N) particles ([1]; 100 nM SR11237 + 1 nM ligand): ≦5% | percentage of apoptotic (<2N) particles ([1]; 100 nM SR11237 + 10 nM ligand): ≦5% | percentage of apoptotic (<2N) particles ([1]; 100 nM SR11237 + 100 nM ligand): 16 ± 3% | percentage of apoptotic (<2N) particles ([1]; 100 nM SR11237 + 1 μM ligand): 30 ± 2% | percentage of apoptotic (<2N) particles [1, 5]: ≦5% | percentage of apoptotic (<2N) particles [1, 6]: ≦5% | synergy with the pan-RXR agonist SR11237 to induce LC death [1]: synergized with the pan-RXR agonist to induce LC death | activation of immature LC (class II / CD86, DRhi-CD86hi) in the presence of TNFα ([2]; result in words): weak effect; also recorded: upregulate | RARα AF2 (RARα AF2): 0 | RARβ AF2 (RARβ AF2): + | RARγ AF2 (RARγ AF2): 0 | RXR AF2 (RXR AF2): 0

TNFα
inhibition of the pro-apoptotic effects of retinol ([1]; 1 ng/ml of TNFα): > 50% | percentage of apoptotic (<2N) particles ([1]; agent + Cmpd. I 1 μM, Cmpd. II 1 μM, Cmpd. VIII 1 μM, Z-Vad 50 μM, TNFα 10 ng/ml, CD40L coculture): 11 ± 1% | percentage of apoptotic (<2N) particles ([1]; agent + Compound I 100 nM + SR11237 100 nM, Cmpd. II 1 μM, Cmpd. VIII 1 μM, Z-Vad 50 μM, TNFα 10 ng/ml, CD40L coculture): 14 ± 2% | percentage of apoptotic (<2N) particles ([1]; agent + Rol 1 μM, Cmpd. VIII 1 μM, TNFα 10 ng/ml): 4.5 ± 1% | percentage of apoptotic (<2N) particles ([1]; agent + tRA 1 μM, Cmpd. II 1 μM, Cmpd. VIII 1 μM, Z-Vad 50 μM, TNFα 10 ng/ml, CD40L coculture): 8 ± 7% | percentage of apoptotic (<2N) particles ([1]; agent alone (column 0), Cmpd. II 1 μM, Cmpd. VIII 1 μM, Z-Vad 50 μM, TNFα 10 ng/ml, CD40L coculture): ≦5% | inhibition of retinoid-induced apoptosis / cell death of immature LC [1]: inhibited the pro-apoptotic effects

C=C(c1ccc(C(=O)O)cc1)c1cc2c(cc1C)C(C)(C)CC=C2C(C)C [Compound V, 4-[1-[5,6-Dihydro-3,5,5-trimethyl-8-(1-methylethyl)-2-naphthalenyl]ethenyl]benzoic acid]
percentage of apoptotic (<2N) particles [1, 3]: ≦5% | percentage of apoptotic (<2N) particles [1, 4]: ≦5% | percentage of apoptotic (<2N) particles [1, 5]: ≦5% | percentage of apoptotic (<2N) particles [1, 6]: ≦5% | induction of apoptosis / death of immature LC by the substance on its own [1]: neither SR11237 (Table 3) nor BMS749 exhibited an apoptotic effect | activation of immature LC (class II / CD86, DRhi-CD86hi) in the presence of TNFα ([2]; result in words): also synergized with TNFα to activate LC | RARα AF2 (RARα AF2): − | RARβ AF2 (RARβ AF2): − | RARγ AF2 (RARγ AF2): − | RXR AF2 (RXR AF2): + | (RXR)2 AF2 (RXRα homodimer [(RXR)2]): + | RARα-RXR DR5 (RARα-RXRα heterodimer): −

CC1(C)CC=C(c2ccccc2)c2cc(/C=C/c3ccc(C(=O)O)cc3)ccc21 [Compound VII]
percentage of apoptotic (<2N) particles [1, 3]: ≦5% | percentage of apoptotic (<2N) particles [1, 4]: ≦5% | percentage of apoptotic (<2N) particles ([1]; 100 nM SR11237 + 1 nM ligand): ≦5% | percentage of apoptotic (<2N) particles ([1]; 100 nM SR11237 + 10 nM ligand): 5% | percentage of apoptotic (<2N) particles ([1]; 100 nM SR11237 + 100 nM ligand): 20 ± 6% | percentage of apoptotic (<2N) particles ([1]; 100 nM SR11237 + 1 μM ligand): 19 ± 7% | percentage of apoptotic (<2N) particles [1, 5]: ≦5% | percentage of apoptotic (<2N) particles [1, 6]: 10 ± 6% | synergy with the pan-RXR agonist SR11237 to induce LC death [1]: synergized with the pan-RXR agonist to induce LC death | activation of immature LC (class II / CD86, DRhi-CD86hi) in the presence of TNFα ([2]; result in words): weak effect | RARα AF2 (RARα AF2): − | RARβ AF2 (RARβ AF2): + | RARγ AF2 (RARγ AF2): − | RXR AF2 (RXR AF2): 0

IL-1β: Human recombinant IL-1β from R&D Systems
inhibition of retinoid-induced apoptosis / cell death of immature LC [1]: inhibited the apoptotic effect of retinoids

Cc1ccc(S(=O)(=O)N[C@@H](Cc2ccccc2)C(=O)CCl)cc1 [TPCK]
inhibition of the increase of class II and CD86 on LCs ([2]; LCs treated with tRA and TNFα, TPCK 10 nM): 50% | toxicity on LCs ([2]; TPCK 10 nM, LCs treated with tRA and TNFα): without any evidence of toxicity

CC1(C)CC=C(C#Cc2ccccc2)c2cc(/C=C/c3ccc(C(=O)O)cc3)ccc21 [Compound VIII]
percentage of apoptotic (<2N) particles ([1]; 100 nM SR11237 + 1 nM ligand): ≦5% | percentage of apoptotic (<2N) particles ([1]; 100 nM SR11237 + 10 nM ligand): ≦5% | percentage of apoptotic (<2N) particles ([1]; 100 nM SR11237 + 100 nM ligand): ≦5% | percentage of apoptotic (<2N) particles ([1]; 100 nM SR11237 + 1 μM ligand): ≦5% | inhibition of retinoid-induced apoptosis / cell death of immature LC [1]: inhibited retinol-induced cell death; also recorded: strongly inhibited | effect on Compound II / SR11237 synergy for TNFα-induced LC activation ([2]; result in words): inhibited | effect on TNFα-SR11237 synergism for LC activation ([2]; result in words): only a weak effect | effect on synergy between TNFα and retinol, tRA or Compound I on LC activation ([2]; result in words): inhibited | effect on 9cRA-induced LC activation ([2]; with TNFα, result in words): only partially blocked | RARα AF2 (RARα AF2): − | RARβ AF2 (RARβ AF2): − | RARγ AF2 (RARγ AF2): − | RXR AF2 (RXR AF2): 0

CC1=C(/C=C/C(C)=C\C=C\C(C)=C\C(=O)O)C(C)(C)CCC1 [Compound 9cRA, 9-cis retinoic acid, reference compound]
percentage of apoptotic (<2N) particles [1, 3]: ≦5% | percentage of apoptotic (<2N) particles [1, 4]: ≦5% | percentage of apoptotic (<2N) particles [1, 5]: 8 ± 3% | percentage of apoptotic (<2N) particles [1, 6]: 30 ± 9% | induction of apoptosis / death of immature LC by the substance on its own [1]: induced a similar dose- and time-dependent increase in death | activation of immature LC (class II / CD86, DRhi-CD86hi) in the presence of TNFα ([2]; result in words): upregulate | class II or CD86 upregulation on immature LC ([2]; in the absence or at low concentrations of TNFα): did not significantly induce | RXR AF2 (RXR AF2): +
